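How tested: cells in 96-well plates exposed to compound for 48 hours at five concentrations. Abbreviation: GI50, concentration required for 50% inhibition of growth.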 Calls of active or inactive are those of the source. Rule as the data show it: active = GI50 up to about 1.1 µM and inactive = higher.
Key:
Test in all cases: DTP human tumour cell line panel, 48 h
[1] = tested on: 786-0
[2] = tested on: DLD-1
[3] = tested on: HL-60
[4] = tested on: KM-20L2
[5] = tested on: KM12
[6] = tested on: MOLT-4
[7] = tested on: RPMI-8226
[8] = tested on: SF-268
[9] = tested on: SF-539
[10] = tested on: SK-MEL-2
[11] = tested on: SNB-19
[12] = tested on: SW-620
[13] = tested on: UACC-257
[14] = tested on: UO-31
[15] = tested on: NCI-H226

SMILES	GI50 [1]	GI50 [2]	GI50 [3]	GI50 [4]	GI50 [5]	GI50 [6]	GI50 [7]	GI50 [8]	GI50 [9]	GI50 [10]	GI50 [11]	GI50 [12]	GI50 [13]	GI50 [14]	GI50 [15]
N#CC1CCCCCCCCCCC(=O)N(CCCl)C1=O (configuration not stated)	> 100 µM (inactive)	> 100 µM (inactive)	> 100 µM (inactive)	> 100 µM (inactive)	> 100 µM (inactive)	> 100 µM (inactive)	> 100 µM (inactive)	> 100 µM (inactive)	> 100 µM (inactive)	> 100 µM (inactive)	> 100 µM (inactive)	> 100 µM (inactive)	> 100 µM (inactive)	> 100 µM (inactive)	–
O=C1C=C(c2[nH]c3ccccc3c2C2=CC(=O)c3ccccc3C2=O)C(=O)c2ccccc21	> 100 µM (inactive)	57.1 µM (inactive)	21.8 µM (inactive)	–	36.1 µM (inactive)	15 µM (inactive)	33 µM (inactive)	34.4 µM (inactive)	34.8 µM (inactive)	–	70.1 µM (inactive)	66.5 µM (inactive)	–	> 100 µM (inactive)	61.7 µM (inactive)
CN(C)CCC(O)(c1ccccc1)C(O)(CCN(C)C)c1ccccc1 (configuration not stated)	> 100 µM (inactive)	> 100 µM (inactive)	–	67 µM (inactive)	> 100 µM (inactive)	> 100 µM (inactive)	> 100 µM (inactive)	> 100 µM (inactive)	–	> 100 µM (inactive)	> 100 µM (inactive)	> 100 µM (inactive)	22.3 µM (inactive)	> 100 µM (inactive)	–
C=C1[C@@H]2CCC(C)(C)[C@H]1CCC(=O)[C@@H]2C(=O)OC	> 100 µM (inactive)	–	> 100 µM (inactive)	> 100 µM (inactive)	–	> 100 µM (inactive)	> 100 µM (inactive)	> 100 µM (inactive)	> 100 µM (inactive)	> 100 µM (inactive)	> 100 µM (inactive)	> 100 µM (inactive)	> 100 µM (inactive)	> 100 µM (inactive)	> 100 µM (inactive)
CCC(=O)CC(=O)CCC(=O)Nc1cc(C)ccc1C	> 100 µM (inactive)	> 100 µM (inactive)	> 100 µM (inactive)	> 100 µM (inactive)	> 100 µM (inactive)	> 100 µM (inactive)	> 100 µM (inactive)	> 100 µM (inactive)	> 100 µM (inactive)	> 100 µM (inactive)	> 100 µM (inactive)	> 100 µM (inactive)	–	> 100 µM (inactive)	–
O=C(O)C(CO)NC(=O)n1c2ccccc2c2ccccc21 (configuration not stated)	> 100 µM (inactive)	> 100 µM (inactive)	> 100 µM (inactive)	–	> 100 µM (inactive)	> 100 µM (inactive)	> 100 µM (inactive)	> 100 µM (inactive)	> 100 µM (inactive)	> 100 µM (inactive)	> 100 µM (inactive)	> 100 µM (inactive)	> 100 µM (inactive)	–	> 100 µM (inactive)
CC1C(c2ccccc2)N(C)C(c2ccccc2)C(C)C1(O)c1ccccc1 (configuration not stated)	> 100 µM (inactive)	> 100 µM (inactive)	31.8 µM (inactive)	> 100 µM (inactive)	77.8 µM (inactive)	> 100 µM (inactive)	–	> 100 µM (inactive)	> 100 µM (inactive)	79.6 µM (inactive)	> 100 µM (inactive)	54 µM (inactive)	> 100 µM (inactive)	> 100 µM (inactive)	44.2 µM (inactive)
c1ccc2c(c1)CCc1cc3cc4c(nc3nc1-2)-c1ccccc1CC4	83 µM (inactive)	> 100 µM (inactive)	> 100 µM (inactive)	–	> 100 µM (inactive)	> 100 µM (inactive)	> 100 µM (inactive)	83 µM (inactive)	> 100 µM (inactive)	–	> 100 µM (inactive)	> 100 µM (inactive)	> 100 µM (inactive)	> 100 µM (inactive)	> 100 µM (inactive)
Cc1ccc(Cl)c2c(=O)cc(-c3ccccc3)[nH]c12	> 100 µM (inactive)	> 100 µM (inactive)	48.5 µM (inactive)	–	25.4 µM (inactive)	32.9 µM (inactive)	40.8 µM (inactive)	58.6 µM (inactive)	80.2 µM (inactive)	47.9 µM (inactive)	–	67.5 µM (inactive)	58.1 µM (inactive)	37.9 µM (inactive)	48.3 µM (inactive)
O=C1Nc2c(ccc(Cl)c2I)C1=O	15 µM (inactive)	18.5 µM (inactive)	18.5 µM (inactive)	30 µM (inactive)	24.4 µM (inactive)	18.7 µM (inactive)	15.5 µM (inactive)	20 µM (inactive)	–	13.7 µM (inactive)	42.3 µM (inactive)	18.7 µM (inactive)	> 10 µM (inactive)	18.2 µM (inactive)	22.5 µM (inactive)
Cc1cc(Cl)ccc1NC(=O)C1C(=O)N(c2ccc(Cl)cc2C)C(=O)/C1=N\NC(N)=S (configuration not stated)	32.6 µM (inactive)	35.3 µM (inactive)	20.1 µM (inactive)	20.7 µM (inactive)	32.9 µM (inactive)	19.2 µM (inactive)	44.8 µM (inactive)	35.6 µM (inactive)	26.1 µM (inactive)	–	37.3 µM (inactive)	29.7 µM (inactive)	59 µM (inactive)	17 µM (inactive)	–
O=C1C(Cl)=C(NCCOCCO)C(=O)c2c(O)ccc(O)c21	4.97 µM (inactive)	2.13 µM (inactive)	3.89 µM (inactive)	–	3.32 µM (inactive)	5.19 µM (inactive)	3.1 µM (inactive)	–	4.53 µM (inactive)	8.67 µM (inactive)	–	3.55 µM (inactive)	2.97 µM (inactive)	16 µM (inactive)	18.3 µM (inactive)
O=C(Nc1cc(Cl)ccc1Cl)c1cc2cccc(Cl)c2oc1=O	> 100 µM (inactive)	> 100 µM (inactive)	> 100 µM (inactive)	> 100 µM (inactive)	> 100 µM (inactive)	> 100 µM (inactive)	> 100 µM (inactive)	–	> 100 µM (inactive)	–	–	> 100 µM (inactive)	61.2 µM (inactive)	–	–
CC(=O)NC1=C(N)C(=O)c2ccccc2C1=O	37.7 µM (inactive)	31.4 µM (inactive)	27.1 µM (inactive)	87.5 µM (inactive)	> 100 µM (inactive)	> 100 µM (inactive)	60 µM (inactive)	37.8 µM (inactive)	> 100 µM (inactive)	90.6 µM (inactive)	> 100 µM (inactive)	14.9 µM (inactive)	> 100 µM (inactive)	> 100 µM (inactive)	–
CC1=C(C(=O)Nc2ccccc2C)C(c2ccco2)C(C(=O)Nc2ccccc2C)=C(C)N1C	> 100 µM (inactive)	> 100 µM (inactive)	> 100 µM (inactive)	–	> 100 µM (inactive)	51.2 µM (inactive)	> 100 µM (inactive)	> 100 µM (inactive)	> 100 µM (inactive)	> 100 µM (inactive)	> 100 µM (inactive)	> 100 µM (inactive)	> 100 µM (inactive)	> 100 µM (inactive)	> 100 µM (inactive)
C/C(=N\NS(=O)(=O)c1ccc(C)cc1)c1cc2ccccc2n1C	68.7 µM (inactive)	> 100 µM (inactive)	> 100 µM (inactive)	> 100 µM (inactive)	> 100 µM (inactive)	> 100 µM (inactive)	> 100 µM (inactive)	66.2 µM (inactive)	> 100 µM (inactive)	> 100 µM (inactive)	69.8 µM (inactive)	> 100 µM (inactive)	> 100 µM (inactive)	> 100 µM (inactive)	–
O=C(O)C1=Cc2cccc3cccc(c23)C1=O	> 100 µM (inactive)	> 100 µM (inactive)	> 100 µM (inactive)	> 100 µM (inactive)	> 100 µM (inactive)	> 100 µM (inactive)	> 100 µM (inactive)	> 100 µM (inactive)	–	> 100 µM (inactive)	> 100 µM (inactive)	> 100 µM (inactive)	> 100 µM (inactive)	81.8 µM (inactive)	> 100 µM (inactive)
COC(=O)[C@@]12OC[C@]34C([C@@H](O)C1O)[C@@]1(C)CC(=O)C(OC(=O)CC(C)C(F)(F)F)=C(C)C1C[C@H]3OC(=O)[C@H](O)[C@H]42 (some centres not stated)	1.92 µM (inactive)	–	0.268 µM (active)	3.8 µM (inactive)	11.2 µM (inactive)	0.771 µM (active)	0.594 µM (active)	6.85 µM (inactive)	1.51 µM (inactive)	2.95 µM (inactive)	0.809 µM (active)	1.21 µM (inactive)	2.93 µM (inactive)	10.6 µM (inactive)	2.06 µM (inactive)
CCCCCCCCCCCCCCCCOCC(CP(=O)([O-])OCC[n+]1ccccc1)OC (configuration not stated)	14 µM (inactive)	2.81 µM (inactive)	1.76 µM (inactive)	–	2.67 µM (inactive)	4.65 µM (inactive)	2.96 µM (inactive)	7.1 µM (inactive)	14.6 µM (inactive)	16.5 µM (inactive)	10.1 µM (inactive)	14.9 µM (inactive)	14.5 µM (inactive)	9.4 µM (inactive)	4.02 µM (inactive)
CCOC(C)C(/C=N/NC(N)=S)=NNC(N)=S (configuration not stated) [GLOXAZONE]	> 100 µM (inactive)	> 100 µM (inactive)	0.0531 µM (active)	–	> 100 µM (inactive)	< 0.0254 µM (active)	0.0643 µM (active)	> 100 µM (inactive)	> 100 µM (inactive)	29.1 µM (inactive)	> 100 µM (inactive)	> 100 µM (inactive)	< 0.0411 µM (active)	–	–

Source: ChEMBL document CHEMBL1201862, “PubChem BioAssay data set” (2004)
